Structures can show the parent of a compound that is named as a salt.
Key:
[1] = tested on: Tyk2 kinase activity on STAT4; test: pSTAT4 cell assay (MSD, NK92 cells); type: cell-based; conditions: compounds 1 hr
How it was run: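 Compound treatment of starved NK92 cells ran 1 hr before a 15-minute, 30 ng/mL IL2 pulse; lysates went to an MSD anti-STAT4 antibody assay, with curves fitted by 4-parameter logistic model.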

JH2 domain of human Tyk2 = molecular target: T1, JH2 domain of human Tyk2 (Homo sapiens, UniProt P29597); test: JH2 biochemical assay (TR-FRET probe displacement); type: binding
T1 construct: 10×His-tagged TYK2 JH2 domain (amino acid 575-876)
How it was run: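 A probe-displacement TR-FRET readout: compounds, tested in 3-fold, 10-point dilutions starting at […], compete with 2 nM tracer for 2 nM His-tagged JH2 (residues 575-876) detected by 0.1 nM Tb-anti-His over 60 min. IC50 comes from 4-parameter fits of normalized 520/495 nm ratios.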

[2] = TR-FRET probe displacement, JH2 domain of human Tyk2

T1 sequence (P29597 575-876): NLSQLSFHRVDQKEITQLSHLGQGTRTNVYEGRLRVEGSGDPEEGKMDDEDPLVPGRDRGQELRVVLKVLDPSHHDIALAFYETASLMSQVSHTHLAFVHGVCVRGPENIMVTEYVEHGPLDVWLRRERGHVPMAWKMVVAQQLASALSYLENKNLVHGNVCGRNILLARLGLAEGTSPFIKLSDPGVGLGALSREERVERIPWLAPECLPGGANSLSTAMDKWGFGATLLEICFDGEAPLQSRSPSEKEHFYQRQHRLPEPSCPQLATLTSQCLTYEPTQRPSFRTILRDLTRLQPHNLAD

SMILES | IC50 ([1]; stimulated 15 minutes) [nM] | IC50 (JH2 domain of human Tyk2; JH2 biochemical assay) [nM] | IC50 ([1]; then stimulated 15 minutes) [nM] | IC50 (JH2 domain of human Tyk2; [2]) [nM]
CC(=O)Nc1cc2c(cn1)C1(CC1)CN2c1cc(C)nc(C2CCCOC2)n1 (stereo not shown) [Example 70, N-(1′-(6-methyl-2-(tetrahydro-2H-pyran-3-yl)pyrimidin-4-yl)-1′,2′-dihydrospiro[cyclopropane-1,3′-pyrrolo[3,2-c]pyridin]-6′-yl)acetamide] | 100 to 1000 | ≤ 10 |  | 
CC(=O)Nc1cc2c(cn1)C1(CC1)CN2c1cc(F)nc(C(C)(F)F)n1 [Example 305, N-(1′-(2-(1,1-difluoroethyl)-6-fluoropyrimidin-4-yl)-1′,2′-dihydrospiro[cyclopropane-1,3′-pyrrolo[3,2-c]pyridin]-6′-yl)acetamide trifluoroacetate] | 100 to 1000 | 10 to 100 |  | 
CC(=O)Nc1cc2c(cn1)C1(CC1)CN2c1cc(C)cc(N2CC(C#N)C2)n1 [Example 194, N-(1′-(6-(3-cyanoazetidin-1-yl)-4-methylpyridin-2-yl)-1′,2′-dihydrospiro[cyclopropane-1,3′-pyrrolo[3,2-c]pyridin]-6′-yl)acetamide] | ≥ 1000 | ≤ 10 |  | 
CC(=O)Nc1cc2c(cn1)C1(CC1)CN2c1cc(C)nc(N2CC[C@@H](C#N)C2)n1 [Example 407, (R)-N-(1′-(2-(3-cyanopyrrolidin-1-yl)-6-methylpyrimidin-4-yl)-1′,2′-dihydrospiro[cyclopropane-1,3′-pyrrolo[3,2-c]pyridin]-6′-yl)acetamide] |  |  | 100 to 1000 | ≤ 10
CC(=O)Nc1cc2c(cn1)C1(CC1)CN2c1cc(NC[C@H]2CCO2)nc(C(C)(F)F)n1 [Example 162, (R)-N-(1′-(2-(1,1-difluoroethyl)-6-((oxetan-2-ylmethyl)amino)pyrimidin-4-yl)-1′,2′-dihydrospiro[cyclopropane-1,3′-pyrrolo[3,2-c]pyridin]-6′-yl)acetamide] | 10 to 100 | ≤ 10 |  | 
CC(=O)Nc1cc2c(cn1)C1(CC1)CN2c1cc(C)cc(N2CC(S(C)(=O)=O)C2)n1 [Example 203, N-(1′-(4-methyl-6-(3-(methylsulfonyl)azetidin-1-yl)pyridin-2-yl)-1′,2′-dihydrospiro[cyclopropane-1,3′-pyrrolo[3,2-c]pyridin]-6′-yl)acetamide] | ≥ 1000 | 100 to 1000 |  | 
CC(=O)Nc1cc2c(cn1)C1(CC1)CN2c1cc(C)cc(N2CC(C)(C#N)C2)n1 [Example 200, N-(1′-(6-(3-cyano-3-methylazetidin-1-yl)-4-methylpyridin-2-yl)-1′,2′-dihydrospiro[cyclopropane-1,3′-pyrrolo[3,2-c]pyridin]-6′-yl)acetamide] | 100 to 1000 | 10 to 100 |  | 
CC(=O)Nc1cc2c(cn1)C1(CC1)CN2c1cc(C)cc(N2CC(C#N)(CF)C2)n1 [Example 196, N-(1′-(6-(3-cyano-3-(fluoromethyl)azetidin-1-yl)-4-methylpyridin-2-yl)-1′,2′-dihydrospiro[cyclopropane-1,3′-pyrrolo[3,2-c]pyridin]-6′-yl)acetamide] | 100 to 1000 | 10 to 100 |  | 
COC1CC(Oc2cc(N3CC4(CC4)c4cnc(NC(C)=O)cc43)nc(C(C)(F)F)n2)C1 (stereo not shown) [Example 5, N-(1′-(2-(1,1-difluoroethyl)-6-(3-methoxycyclobutoxy)pyrimidin-4-yl)-1′,2′-dihydrospiro[cyclopropane-1,3′-pyrrolo[3,2-c]pyridin]-6′-yl)acetamide] | 10 to 100 | ≤ 10 |  | 
CSc1nc(C)cc(N2CC3(CC3)c3cnc(NC(C)=O)cc32)n1 [Example 29, N-(1′-(6-methyl-2-(methylthio)pyrimidin-4-yl)-1′,2′-dihydrospiro[cyclopropane-1,3′-pyrrolo[3,2-c]pyridin]-6′-yl)acetamide] | 100 to 1000 | ≤ 10 |  | 
CC(=O)Nc1cc2c(cn1)C1(CC1)CN2c1cc(C)cc(N2CC(C)(O)C2)n1 [Example 205, N-(1′-(6-(3-hydroxy-3-methylazetidin-1-yl)-4-methylpyridin-2-yl)-1′,2′-dihydrospiro[cyclopropane-1,3′-pyrrolo[3,2-c]pyridin]-6′-yl)acetamide] | ≥ 1000 | 10 to 100 |  | 
CC(=O)Nc1cc2c(cn1)C1(CC1)CN2c1cc(C)cc(N2CCC(C)(C#N)C2)n1 (stereo not shown) [Example 404, N-(1′-(6-(3-cyano-3-methylpyrrolidin-1-yl)-4-methylpyridin-2-yl)-1′,2′-dihydrospiro[cyclopropane-1,3′-pyrrolo[3,2-c]pyridin]-6′-yl)acetamide] |  |  | ≥ 1000 | 10 to 100
CC(=O)Nc1cc2c(cn1)C1(CC1)CN2c1cc(-c2cnn(C3CCC3)c2)nc(C(C)(F)F)n1 [Example 382, N-(1′-(6-(1-cyclobutyl-1H-pyrazol-4-yl)-2-(1,1-difluoroethyl)pyrimidin-4-yl)-1′,2′-dihydrospiro[cyclopropane-1,3′-pyrrolo[3,2-c]pyridin]-6′-yl)acetamide trifluoroacetate] |  |  | ≤ 10 | ≤ 10
CC(=O)Nc1cc2c(cn1)C1(CC1)CN2c1cc(CCCOC(C)(C)C)nc(C(C)(F)F)n1 [Example 325, N-(1′-(6-(3-(tert-butoxy)propyl)-2-(1,1-difluoroethyl)pyrimidin-4-yl)-1′,2′-dihydrospiro[cyclopropane-1,3′-pyrrolo[3,2-c]pyridin]-6′-yl)acetamide] | 10 to 100 | ≤ 10 |  | 
COCC(F)(F)c1cc(C)cc(N2CC3(CC3)c3cnc(NC(C)=O)cc32)n1 [Example 315, N-(1′-(6-(1,1-difluoro-2-methoxyethyl)-4-methylpyridin-2-yl)-1′,2′-dihydrospiro[cyclopropane-1,3′-pyrrolo[3,2-c]pyridin]-6′-yl)acetamide trifluoroacetate] | ≥ 1000 | 10 to 100 |  | 
CC(=O)Nc1cc2c(cn1)C1(CC1)CN2c1nc(C2CCCOC2)cs1 (stereo not shown) [Example 81, N-(1′-(4-(tetrahydro-2H-pyran-3-yl)thiazol-2-yl)-1′,2′-dihydrospiro[cyclopropane-1,3′-pyrrolo[3,2-c]pyridin]-6′-yl)acetamide trifluoroacetate] | ≥ 1000 | 10 to 100 |  | 
CC(=O)Nc1cc2c(cn1)C1(CC1)CN2c1cc(C)cc(C(F)(F)CO)n1 [Example 290, N-(1′-(6-(1,1-difluoro-2-hydroxyethyl)-4-methylpyridin-2-yl)-1′,2′-dihydrospiro[cyclopropane-1,3′-pyrrolo[3,2-c]pyridin]-6′-yl)acetamide] | 10 to 100 | ≤ 10 |  | 
COC(C)(C)COc1cc(C)cc(N2CC3(CC3)c3cnc(NC(C)=O)cc32)n1 [Example 336, N-(1′-(6-(2-methoxy-2-methylpropoxy)-4-methylpyridin-2-yl)-1′,2′-dihydrospiro[cyclopropane-1,3′-pyrrolo[3,2-c]pyridin]-6′-yl)acetamide trifluoroacetate] | ≥ 1000 | 100 to 1000 |  | 
CC(=O)Nc1cc2c(cn1)C1(CC1)CN2c1cc(C)nc(N2CC[C@H](C#N)C2)n1 [Example 408, (S)-N-(1′-(2-(3-cyanopyrrolidin-1-yl)-6-methylpyrimidin-4-yl)-1′,2′-dihydrospiro[cyclopropane-1,3′-pyrrolo[3,2-c]pyridin]-6′-yl)acetamide] |  |  | 100 to 1000 | 10 to 100
CC(=O)Nc1cc2c(cn1)C1(CC1)CN2c1cc(NCCCF)nc(C(C)(F)F)n1 [Example 164, N-(1′-(2-(1,1-difluoroethyl)-6-((3-fluoropropyl)amino)pyrimidin-4-yl)-1′,2′-dihydrospiro[cyclopropane-1,3′-pyrrolo[3,2-c]pyridin]-6′-yl)acetamide trifluoroacetate] | 10 to 100 | ≤ 10 |  | 
CC(=O)Nc1cc2c(cn1)C1(CC1)CN2c1cc(C)nc(C23COC(C2)C3)n1 [Example 320, N-(1′-(2-(2-oxabicyclo[2.1.1]hexan-4-yl)-6-methylpyrimidin-4-yl)-1′,2′-dihydrospiro[cyclopropane-1,3′-pyrrolo[3,2-c]pyridin]-6′-yl)acetamide] | 10 to 100 | ≤ 10 |  | 
CC(=O)Nc1cc2c(cn1)C1(CC1)CN2c1cc(C)nc(-c2cnn(C3CC3)c2)n1 [Example 250, N-(1′-(2-(1-cyclopropyl-1H-pyrazol-4-yl)-6-methylpyrimidin-4-yl)-1′,2′-dihydrospiro[cyclopropane-1,3′-pyrrolo[3,2-c]pyridin]-6′-yl)acetamide] | ≥ 1000 | 10 to 100 |  | 
CC(=O)Nc1cc2c(cn1)C1(CC1)CN2c1cc(C)nc(N2CCC3(CC2)COC3)n1 [Example 228, N-(1′-(6-methyl-2-(2-oxa-7-azaspiro[3.5]nonan-7-yl)pyrimidin-4-yl)-1′,2′-dihydrospiro[cyclopropane-1,3′-pyrrolo[3,2-c]pyridin]-6′-yl)acetamide trifluoroacetate] | ≥ 1000 | 100 to 1000 |  | 
CCNc1cc(N2CC3(CC3)c3cnc(NC(C)=O)cc32)nc(C(C)(F)F)n1 [Example 167, N-(1′-(2-(1,1-difluoroethyl)-6-(ethylamino)pyrimidin-4-yl)-1′,2′-dihydrospiro[cyclopropane-1,3′-pyrrolo[3,2-c]pyridin]-6′-yl)acetamide trifluoroacetate] | 100 to 1000 | ≤ 10 |  | 
CCS(=O)(=O)C1CN(c2nc(C)cc(N3CC4(CC4)c4cnc(NC(C)=O)cc43)n2)C1 [Example 225, N-(1′-(2-(3-(ethylsulfonyl)azetidin-1-yl)-6-methylpyrimidin-4-yl)-1′,2′-dihydrospiro[cyclopropane-1,3′-pyrrolo[3,2-c]pyridin]-6′-yl)acetamide] | ≥ 1000 | 100 to 1000 |  | 
CC(=O)Nc1cc2c(cn1)C1(CC1)CN2c1cc(C)nc(C2CC2)n1 [Example 54, N-(1′-(2-cyclopropyl-6-methylpyrimidin-4-yl)-1′,2′-dihydrospiro[cyclopropane-1,3′-pyrrolo[3,2-c]pyridin]-6′-yl)acetamide] | 100 to 1000 | ≤ 10 |  | 
